Measured values: publication PMC3425385 (2011)

Molecular target: T1, KIAA1363 (AADACL1, NCEH1) (Homo sapiens, UniProt Q6PIU2)
T1 sequence (Q6PIU2 1-408): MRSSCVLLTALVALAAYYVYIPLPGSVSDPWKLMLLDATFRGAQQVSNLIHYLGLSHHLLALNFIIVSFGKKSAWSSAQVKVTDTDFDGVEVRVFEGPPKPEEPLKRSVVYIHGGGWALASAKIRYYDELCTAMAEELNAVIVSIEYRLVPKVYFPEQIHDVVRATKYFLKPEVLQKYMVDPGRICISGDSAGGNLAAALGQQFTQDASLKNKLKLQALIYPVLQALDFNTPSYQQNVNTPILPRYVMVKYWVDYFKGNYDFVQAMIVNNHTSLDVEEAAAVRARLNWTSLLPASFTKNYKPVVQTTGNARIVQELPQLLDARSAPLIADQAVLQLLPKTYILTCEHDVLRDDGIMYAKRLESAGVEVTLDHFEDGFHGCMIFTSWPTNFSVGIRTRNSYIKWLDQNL
Experiment: competitive gel-based ABPP with FP-Rh in PC3 cells in situ
Format: cell-based

- IC50: 340 ± 150 nM
Substance: JW576
